Reference: US20090325957A1, “MORPHOLINO PYRIMIDINE DERIVATIVES USEFUL IN THE TREATMENT OF PROLIFERATIVE DISORDERS” (ASTRAZENECA AB, priority 2006, published 2009)
“And” between values parts separate entries of the source, which are not always exact repeats. Equal values may be shown once.

Biological target: recombinant mTOR (Homo sapiens, UniProt P42345)
Assay: In vitro mTOR kinase assay (AlphaScreen), Test (a)
Assay type: biochemical
Details: average value; read-out: Test (a) average IC50
Procedure: (a) In Vitro mTOR Kinase Assay
The assay used AlphaScreen technology (Gray et al., Analytical Biochemistry, 2003, 313: 234-245) to determine the ability of test compounds to inhibit phosphorylation by recombinant mTOR.
The HEK293 FLAG-tagged mTOR (1362-2549) stable cell line was routinely maintained at 37° C. with 5% CO2 up to a confluency of 70-90% in Dulbecco's modified Eagle's growth medium (DMEM; Invitrogen Limited, Paisley, UK Catalogue No. 41966-029) containing 10% heat-inactivated foetal calf serum (FCS; Sigma, Poole, Dorset, UK, Catalogue No. F0392), 1% L-glutamine (Gibco, Catalogue No. 25030-024) and 2 mg/ml Geneticin (G418 sulfate; Invitrogen Limited, UK Catalogue No. 10131-027). Following expression in the mammalian HEK293 cell line, expressed protein was purified using the FLAG epitope tag using standard purification techniques.
Test compounds were prepared as 10 mM stock solutions in DMSO and diluted into water as required to give a range of final assay concentrations. Aliquots (2 μl) of each compound dilution were placed into a well of a Greiner 384-well low volume (LV) white polystyrene plate (Greiner Bio-one).
Control wells that produced a maximum signal corresponding to maximum enzyme activity were created by using 5% DMSO instead of test compound. […] These assay solutions were incubated for 2 hours at room temperature.
Each reaction was stopped by the addition of 10 μl of a mixture of EDTA (50 mM), bovine serum albumin (BSA; 0.5 mg/mL) and Tris-HCl pH7.4 buffer (50 mM) containing
p70 S6 Kinase (T389) 1A5 Monoclonal Antibody (Cell Signalling Technology, Catalogue No. 9206B) and AlphaScreen Streptavidin donor and Protein A acceptor beads (200 ng; Perkin Elmer, Catalogue No. 6760002B and 6760137R respectively) were added and the assay plates were left for about 20 hours at room temperature in the dark. The resultant signals arising from laser light excitation at 680 nm were read using a Packard Envision instrument.
Phosphorylated biotinylated peptide is formed in situ as a result of mTOR mediated phosphorylation. The phosphorylated biotinylated peptide that is associated with AlphaScreen Streptavidin donor beads forms a complex with the p70 S6 Kinase (T389) 1A5 Monoclonal Antibody that is associated with Alphascreen Protein A acceptor beads. Upon laser light excitation at 680 nm, the donor bead: acceptor bead complex produces a signal that can be measured. Accordingly, the presence of mTOR kinase activity results in an assay signal. In the presence of an mTOR kinase inhibitor, signal strength is reduced.
mTOR enzyme inhibition for a given test compound was expressed as an IC50 value.

Sequence of recombinant mTOR (P42345 1362-2549): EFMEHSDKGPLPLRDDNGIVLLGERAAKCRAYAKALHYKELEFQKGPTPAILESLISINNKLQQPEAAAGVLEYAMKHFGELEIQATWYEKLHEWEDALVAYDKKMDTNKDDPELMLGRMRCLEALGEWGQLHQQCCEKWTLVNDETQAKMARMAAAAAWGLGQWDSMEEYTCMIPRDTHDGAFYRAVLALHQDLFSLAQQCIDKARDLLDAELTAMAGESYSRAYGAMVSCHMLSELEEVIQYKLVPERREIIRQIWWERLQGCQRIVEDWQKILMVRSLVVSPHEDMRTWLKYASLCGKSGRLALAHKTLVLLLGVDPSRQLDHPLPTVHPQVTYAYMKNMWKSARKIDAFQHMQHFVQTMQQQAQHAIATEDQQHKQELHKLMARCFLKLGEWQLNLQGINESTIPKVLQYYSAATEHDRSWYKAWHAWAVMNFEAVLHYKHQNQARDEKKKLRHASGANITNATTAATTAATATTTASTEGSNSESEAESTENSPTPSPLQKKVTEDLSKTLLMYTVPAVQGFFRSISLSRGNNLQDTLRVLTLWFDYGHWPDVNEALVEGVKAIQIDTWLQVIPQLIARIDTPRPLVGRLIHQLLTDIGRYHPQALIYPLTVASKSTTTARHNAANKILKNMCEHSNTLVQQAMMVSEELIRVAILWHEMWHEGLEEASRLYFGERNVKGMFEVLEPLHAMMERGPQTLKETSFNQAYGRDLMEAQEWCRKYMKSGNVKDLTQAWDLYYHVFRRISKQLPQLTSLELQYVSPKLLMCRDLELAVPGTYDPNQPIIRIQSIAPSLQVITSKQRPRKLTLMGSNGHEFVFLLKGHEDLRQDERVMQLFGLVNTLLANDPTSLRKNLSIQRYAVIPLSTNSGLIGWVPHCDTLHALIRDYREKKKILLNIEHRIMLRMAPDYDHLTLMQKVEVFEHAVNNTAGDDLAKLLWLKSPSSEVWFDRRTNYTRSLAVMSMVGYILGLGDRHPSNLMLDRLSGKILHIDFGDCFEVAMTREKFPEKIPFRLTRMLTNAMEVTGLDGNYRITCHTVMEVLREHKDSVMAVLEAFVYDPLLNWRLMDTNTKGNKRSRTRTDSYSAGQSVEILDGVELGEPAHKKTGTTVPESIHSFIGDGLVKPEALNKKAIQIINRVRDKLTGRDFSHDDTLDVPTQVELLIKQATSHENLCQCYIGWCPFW

Structure (SMILES) | IC50 [µM]
CS(=O)(=O)Cc1cc(N2CCOCC2)nc(-c2ccc(NS(C)(=O)=O)c(CO)c2)n1 [Example 1, N-[2-(Hydroxymethyl)-4-[4-(methylsulfonylmethyl)-6-morpholin-4-yl-pyrimidin-2-yl]phenyl]methanesulfonamide] | 5
CS(=O)(=O)Cc1cc(N2CCOCC2)nc(-c2ccc(CNS(C)(=O)=O)cc2)n1 [Example 2, N-[[4-[4-(Methylsulfonylmethyl)-6-morpholin-4-yl-pyrimidin-2-yl]phenyl]methyl]methanesulfonamide] | 6.8
C[C@H]1COCCN1c1cc(CS(C)(=O)=O)nc(-c2ccc(NS(C)(=O)=O)cc2)n1 [Example 6, N-[4-[4-[(3S)-3-Methylmorpholin-4-yl]-6-(methylsulfonylmethyl)pyrimidin-2-yl]phenyl]methanesulfonamide] | 1
C[C@H]1COCCN1c1cc(CS(C)(=O)=O)nc(-c2ccc(CNS(C)(=O)=O)cc2)n1 [Example 5, N-[[4-[4-[(3S)-3-Methylmorpholin-4-yl]-6-(methylsulfonylmethyl)pyrimidin-2-yl]phenyl]methyl]methanesulfonamide] | 4.5
CS(=O)(=O)Cc1cc(N2CCOCC2)nc(-c2ccc(NS(C)(=O)=O)cc2)n1 [Example 4, N-[4-[4-(Methylsulfonylmethyl)-6-morpholin-4-yl-pyrimidin-2-yl]phenyl]methanesulfonamide] | 2.6
CS(=O)(=O)Cc1cc(N2CCOCC2)nc(-c2ccc(NS(=O)(=O)C3CC3)cc2)n1 [Example 3, N-[4-[4-(Methylsulfonylmethyl)-6-morpholin-4-yl-pyrimidin-2-yl]phenyl]cyclopropanesulfonamide] | 0.88

Next, values leading:

IC50 [µM] | Structure (SMILES)
1.4 | CCS(=O)(=O)Nc1ccc(-c2nc(CS(C)(=O)=O)cc(N3CCOCC3)n2)cc1 [Example 3a, N-[4-[4-(methylsulfonylmethyl)-6-morpholin-4-yl-pyrimidin-2-yl]phenyl]ethanesulfonamide]
6 | CCCCS(=O)(=O)Nc1ccc(-c2nc(CS(C)(=O)=O)cc(N3CCOCC3)n2)cc1 [Example 3c, N-[4-[4-(methylsulfonylmethyl)-6-morpholin-4-yl-pyrimidin-2-yl]phenyl]butane-1-sulfonamide]
4 | CCCS(=O)(=O)Nc1ccc(-c2nc(CS(C)(=O)=O)cc(N3CCOCC3)n2)cc1 [Example 3b, N-[4-[4-(methylsulfonylmethyl)-6-morpholin-4-yl-pyrimidin-2-yl]phenyl]propane-1-sulfonamide]
7.1 | CS(=O)(=O)Cc1cc(N2CCOCC2)nc(-c2ccc(NS(=O)(=O)Cc3ccc(F)cc3)cc2)n1 [Example 3d, 1-(4-fluorophenyl)-N-[4-[4-(methylsulfonylmethyl)-6-morpholin-4-yl-pyrimidin-2-yl]phenyl]methanesulfonamide]

Same assay, conditions: single values, measured on three occasions; read-out: IC50 versus mTOR kinase

Structure (SMILES) | IC50
CS(=O)(=O)Cc1cc(N2CCOCC2)nc(-c2ccc(NS(C)(=O)=O)cc2)n1 [Example 4, N-[4-[4-(Methylsulfonylmethyl)-6-morpholin-4-yl-pyrimidin-2-yl]phenyl]methanesulfonamide] | 3.32 µM and 2.49 µM and 2.25 µM
